Biological target: T1, mouse mincle (CLEC-4E) CRD, biotin-tagged (Mus musculus, UniProt Q9R0Q8)
T1 construct: gene Clec4e; minimal C-terminal carbohydrate-recognition domain (primers encode ACPLNWKHY... to ...PEISPLD) with C-terminal biotinylation tag GLNDIFEAQKIEWHE kept; immobilized on streptavidin wells
T1 sequence (Q9R0Q8 80-214): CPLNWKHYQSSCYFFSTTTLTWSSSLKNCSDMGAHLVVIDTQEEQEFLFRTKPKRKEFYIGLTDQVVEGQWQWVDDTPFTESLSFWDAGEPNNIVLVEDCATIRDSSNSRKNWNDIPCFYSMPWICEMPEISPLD
Test: solid-phase competition with […]-Man-BSA reporter, CRD immobilized on streptavidin wells
Assay type: binding

SMILES: OC[C@H]1O[C@H](O[C@H]2O[C@H](CO)[C@@H](O)[C@H](O)[C@H]2O)[C@H](O)[C@@H](O)[C@@H]1O [trehalose]
- Ki: 540 ± 180 µM

Reference: article PMC4533885, “Mouse Mincle: Characterization as a Model for Human Mincle and Evolutionary Implications” (Molecules, 2015)
